# Like-named read-outs stand apart in the source and are kept apart here.
# Experiment: Phase 1 Part A food effect (high-fat / low-fat breakfast) on single-dose pharmacokinetics
# Type: in vivo, human
# Settings: for Test/Reference ratio of LS means, AUC0-t / Test/Reference ratio of LS means, AUC0-∞ / Test/Reference ratio of LS means, Cmax: 400 mg Fed; for % AUCextrap: arithmetic mean; for Tmax / AUC(0-t) / AUC(0-inf) / Cmax / Vd/F / half-life: human, plasma, oral
# From the text: This study was a randomized, blinded, placebo-controlled, ascending-dose study to evaluate the safety, tolerability, and pharmacokinetic (PK) of single (Part A) and multiple (Part B) doses of Compound I in healthy subjects. In addition, the effects of a standard high-fat breakfast, standard low-fat breakfast, and pretreatment and co-administration of a proton pump inhibitor (PPI) on the tolerability and PK of a single dose of Compound I were investigated in 2 groups in Part A. All subjects received their full dose of Compound I, administered as the appropriate number of either 25 or 200 mg tablets. The high fat breakfast comprised the following: total energy: 895 kcal; total fat: 61 g; total protein: 41 g; total carbohydrate: 46 g. The low fat breakfast comprised the following: total energy: 611 kcal; total fat: 14.7 g; total protein: 20.3 g; total carbohydrate: 106.3 g.
# For Group A4, doses (400 mg Compound I or placebo) during Treatment Period 1 were administered in a fasted state on the morning of Day 1. Doses in Treatment Period 2 were administered 30 minutes after starting, and within approximately 10 minutes of completing, a high-fat standard breakfast on the morning of Day 1. Doses during Treatment Period 3 were administered 30 minutes after starting, and within approximately 10 minutes of completing a low-fat standard meal on the morning of Day 1. Doses during Treatment Period 4 were administered on Day 1 after an overnight fast and following administration of a PPI (rabeprazole 20 mg) for 3 days (given as 3 daily [QD] doses, with the final PPI dose at 2 hours prior to study drug administration on Day 1). Subjects in Group A4 received the same Compound I or placebo treatment in all treatment periods, such that each subject received up to 4 single doses of Compound I or placebo.
# For Group A5, doses (800 mg Compound I or placebo) during Treatment Period 1 were administered in a fasted state on the morning of Day 1, doses during Treatment Period 2 were administered 30 minutes after starting a low-fat standard breakfast on the morning of Day 1, and doses during Treatment Period 3 were administered on Day 1 after a low-fat meal and following administration of a PPI (rabeprazole 20 mg) for 3 days (given as 3 QD doses, with the final PPI dose at 2 hours prior to study drug administration on Day 1). Subjects in Group A5 received the same Compound I or placebo treatment in all treatment periods, such that each subject received up to 3 single doses of Compound I or placebo.
# For Group A4, each subject participated in 3 additional treatment periods, each separated by a minimum of 7 days. Group A4 resided at the CRU from Day −1 to Day 4 of Treatment Periods 2, 3, and 4. For Group A5, each subject participated in 2 additional treatment periods, each separated by a minimum of 7 days. Group A5 resided at the CRU from Day −1 to Day 4 of Treatment Periods 2 and 3. All subjects returned for a Follow-up visit between 5 to 14 days after their final dose of study treatment.
# In Part A, all doses in Treatment Period 1 were administered after an overnight fast of at least 8 hours. For the A4 cohort, in Treatment Periods 2 and 3, doses were administered 30 minutes after starting and approximately 10 minutes after completing a high- or low-fat breakfast. In Treatment Period 4, the dose was administered after an overnight fast and following administration of a PPI (PPI was comprised of 3 doses of rabeprazole 20 mg, starting on Day −2 and with the final dose 2 hours before Compound I administration on Day 1). For Group A5, doses during Treatment Period 2 were administered 30 minutes after starting and approximately 10 minutes after completing a low-fat standard breakfast on the morning of Day 1, and doses during Treatment Period 3 were administered on Day 1 after a low-fat meal and following administration of a PPI for 3 days (given as 3 QD doses, with the final PPI dose at 2 hours prior to study drug administration on Day 1).
# [1] = High-fat (Test) vs 400 mg Fasted (Reference)
# [2] = High-fat (Test) vs 400 mg Fed, Low-fat (Reference)
# [3] = Low-fat (Test) vs 400 mg Fasted (Reference)
# [4] = 400 mg single dose (A4), Fed, High-fat
# [5] = 400 mg single dose (A4), Fed, Low-fat
# [6] = 800 mg single dose (A5), Fed, Low-fat
# [7] = 800 mg, low-fat fed state vs fasted
# [8] = Table 3, 4th section, Low-fat (Test) vs 400 mg Fasted (Reference), n = 6
# [9] = high-fat fed state from the fasted state
smiles,measurement,setting,value
Cn1cc(-c2cn(-c3ccc(OC(F)(F)F)cc3)c(=O)c3ncn(C)c23)cn1 [Compound I],"Test/Reference ratio of LS means, AUC0-t",[1],149.0%
same,"Test/Reference ratio of LS means, AUC0-∞",[1],145.8%
same,"Test/Reference ratio of LS means, Cmax",[1],168.9%
same,"Test/Reference ratio of LS means, AUC0-t",[2],108.7%
same,"Test/Reference ratio of LS means, AUC0-∞",[2],108.2%
same,"Test/Reference ratio of LS means, Cmax",[2],102.7%
same,"Test/Reference ratio of LS means, AUC0-t",[3],137.1%
same,"Test/Reference ratio of LS means, AUC0-∞",[3],134.7%
same,"Test/Reference ratio of LS means, Cmax",[3],164.4%
same,AUC0-t (norm),[4],14000 (hr*ng/mL)/(mg/kg)
same,AUC0-∞ (norm),[4],14100 (hr*ng/mL)/(mg/kg)
same,CL/F,[4],83.0 mL/min
same,CL/F(norm),[4],1.19 (mL/min)/kg
same,Cmax (norm),[4],1330 ng/mL/mg/kg
same,λZ,[4],0.0861 h⁻¹
same,% AUCextrap,[4],0.213%
same,AUC0-t (norm),[5],12900 (hr*ng/mL)/(mg/kg)
same,AUC0-∞ (norm),[5],13000 (hr*ng/mL)/(mg/kg)
same,CL/F,[5],89.8 mL/min
same,CL/F(norm),[5],1.28 (mL/min)/kg
same,Cmax (norm),[5],1300 ng/mL/mg/kg
same,λZ,[5],0.0852 h⁻¹
same,% AUCextrap,[5],0.691%
same,AUC0-t (norm),[6],14300 (hr*ng/mL)/(mg/kg)
same,AUC0-∞ (norm),[6],14400 (hr*ng/mL)/(mg/kg)
same,CL/F,[6],83.3 mL/min
same,CL/F(norm),[6],1.16 (mL/min)/kg
same,Cmax (norm),[6],1200 ng/mL/mg/kg
same,λZ,[6],0.0793 h⁻¹
same,% AUCextrap,[6],0.395%
same,"Ratio of fed to fasted, AUC0-t",[7],214.0%
same,"Ratio of fed to fasted, AUC0-∞",[7],203.3%
same,"Ratio of fed to fasted, Cmax",[7],225.5%
same,"Test/Reference ratio of LS means, AUC0-t",[8],214.0%
same,"Test/Reference ratio of LS means, AUC0-∞",[8],203.3%
same,"Test/Reference ratio of LS means, Cmax",[8],225.5%
same,Food effect on bioavailability,administration with food (high fat or low fat meal),positive food effect
same,Increase in AUC0-t,[9],49.0%
same,Increase in AUC0-∞,[9],45.8%
same,Increase in Cmax,[9],68.9%
same,Tmax,"400 mg, 400 mg single dose (A4), Fed, High-fat, median, read-out: tmax",3.5 h
same,AUC(0-t),"400 mg, 400 mg single dose (A4), Fed, High-fat, read-out: AUC0-t",80200 ng·h/mL
same,AUC(0-inf),"400 mg, 400 mg single dose (A4), Fed, High-fat, read-out: AUC0-∞",80300 ng·h/mL
same,Cmax,"400 mg, 400 mg single dose (A4), Fed, High-fat, read-out: Cmax",7620 ng/mL
same,Vd/F,"400 mg, 400 mg single dose (A4), Fed, High-fat, read-out: Vz/F",57.8 L
same,Vd/F,"400 mg, 400 mg single dose (A4), Fed, High-fat, read-out: Vz/F(norm)",0.826 L/kg
same,half-life,"400 mg, 400 mg single dose (A4), Fed, High-fat, read-out: t1/2 (converted)",8.05 h
same,Tmax,"400 mg, 400 mg single dose (A4), Fed, Low-fat, median, read-out: tmax",2.5 h
same,AUC(0-t),"400 mg, 400 mg single dose (A4), Fed, Low-fat, read-out: AUC0-t",73700 ng·h/mL
same,AUC(0-inf),"400 mg, 400 mg single dose (A4), Fed, Low-fat, read-out: AUC0-∞",74200 ng·h/mL
same,Cmax,"400 mg, 400 mg single dose (A4), Fed, Low-fat, read-out: Cmax",7420 ng/mL
same,Vd/F,"400 mg, 400 mg single dose (A4), Fed, Low-fat, read-out: Vz/F",63.3 L
same,Vd/F,"400 mg, 400 mg single dose (A4), Fed, Low-fat, read-out: Vz/F(norm)",0.904 L/kg
same,half-life,"400 mg, 400 mg single dose (A4), Fed, Low-fat, read-out: t1/2 (converted)",7.52 h
same,AUC(0-t),"400 mg, Table 3, 4th section, 400 mg Compound I Fasted, n = 6, read-out: LS Means AUC0-t (Reference)",74500 ng·h/mL
same,AUC(0-inf),"400 mg, Table 3, 4th section, 400 mg Compound I Fasted, n = 6, read-out: LS Means AUC0-∞ (Reference)",78700 ng·h/mL
same,Cmax,"400 mg, Table 3, 4th section, 400 mg Compound I Fasted, n = 6, read-out: LS Means Cmax (Reference)",5910 ng/mL
same,Cmax,"400 mg, Table 3, 4th section, 400 mg Compound I Fed, Low-fat, n = 6, read-out: LS Means Cmax (Test)",13300 ng/mL
same,AUC(0-t),"400 mg, Table 3, 4th section, head as printed:, n = 6, read-out: LS Means AUC0-t (Test)",159000 ng·h/mL
same,AUC(0-inf),"400 mg, Table 3, 4th section, head as printed:, n = 6, read-out: LS Means AUC0-∞ (Test)",160000 ng·h/mL
same,Tmax,"400 mg, high-fat fed state, read-out: tmax values, range",1.5 to 6 h
same,Tmax,"800 mg, 800 mg single dose (A5), Fed, Low-fat, median, read-out: tmax",3 h
same,AUC(0-t),"800 mg, 800 mg single dose (A5), Fed, Low-fat, read-out: AUC0-t",159000 ng·h/mL
same,AUC(0-inf),"800 mg, 800 mg single dose (A5), Fed, Low-fat, read-out: AUC0-∞",160000 ng·h/mL
same,Cmax,"800 mg, 800 mg single dose (A5), Fed, Low-fat, read-out: Cmax",13300 ng/mL
same,Vd/F,"800 mg, 800 mg single dose (A5), Fed, Low-fat, read-out: Vz/F",63 L
same,Vd/F,"800 mg, 800 mg single dose (A5), Fed, Low-fat, read-out: Vz/F(norm)",0.876 L/kg
same,half-life,"800 mg, 800 mg single dose (A5), Fed, Low-fat, read-out: t1/2 (converted)",8.74 h
same,half-life,"800 mg, 400 and 800 mg, high- and low-fat states, read-out: Geometric mean t1/2, range",7.5 to 8.7 h
same,Tmax,"low-fat fed state, read-out: tmax values, range",1 to 4 h
same,Increase in AUC0-t,low-fat fed state (vs fasted),37.1%
same,Increase in AUC0-∞,low-fat fed state (vs fasted),34.7%
same,Increase in Cmax,low-fat fed state (vs fasted),64.4%
